US20260258064A1 (SIRONAX LTD., priority 2023, published 2026)
pIC50: −log10 of the molar value.

These compounds were tested against T1, SARM1 (50-724) (Homo sapiens, UniProt Q6SZW1) (assay: SARM1 (50-724) enzymatic assay (LC-MS/MS)). Settings: Purified SARM1 (50-724) 2 nM, NMN as activator, NAD+ as substrate, 1 h at room temperature, read-out: IC50 (SARM1 inhibitory activity).
T1 construct: Purified SARM1 (50-724) with a final concentration of 2 nM was pre-incubated with a test compound
T1 sequence (Q6SZW1 50-724): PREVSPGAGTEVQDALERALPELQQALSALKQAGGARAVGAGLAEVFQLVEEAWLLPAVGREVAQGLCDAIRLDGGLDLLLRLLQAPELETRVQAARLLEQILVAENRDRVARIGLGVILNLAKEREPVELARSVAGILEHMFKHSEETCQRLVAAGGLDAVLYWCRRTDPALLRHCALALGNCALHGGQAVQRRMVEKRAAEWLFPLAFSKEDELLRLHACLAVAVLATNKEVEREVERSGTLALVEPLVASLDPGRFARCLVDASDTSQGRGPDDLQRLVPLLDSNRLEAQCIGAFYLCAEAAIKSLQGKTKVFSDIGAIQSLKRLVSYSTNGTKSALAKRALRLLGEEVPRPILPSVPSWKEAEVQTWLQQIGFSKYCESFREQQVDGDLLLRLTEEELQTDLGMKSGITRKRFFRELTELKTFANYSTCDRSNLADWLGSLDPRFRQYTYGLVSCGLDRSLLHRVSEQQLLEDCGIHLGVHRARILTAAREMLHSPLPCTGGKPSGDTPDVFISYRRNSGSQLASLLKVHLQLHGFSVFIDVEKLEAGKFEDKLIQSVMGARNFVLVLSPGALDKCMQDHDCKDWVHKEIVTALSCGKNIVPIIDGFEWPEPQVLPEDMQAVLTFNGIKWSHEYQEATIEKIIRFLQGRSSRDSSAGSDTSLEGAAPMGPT
Format: biochemical
Description: An enzymatic assay was performed in a 384-well plate using Dulbecco's phosphate-buffered saline (PBS) as the reaction buffer. Purified SARM1 (50-724) with a final concentration of 2 nM was pre-incubated with a test compound at […] final assay concentration for 15 min at room temperature. The reaction was initiated by adding a mixture of […] nicotinamide mononucleotide (NMN) as activator and […] NAD^+ as substrate. After 1 h of incubation at room temperature, the reaction was terminated with 10 times volume of 70% acetonitrile, and then centrifuged at 3800 rpm for 10 min. The samples were analyzed using LC-MS/MS after diluted to a proper concentration by 10 mM ammonium acetate (pH 9.75).
In Table 2, activity is provided as follows: A: IC50≤100 nM; B: 100 nM<IC50≤500 nM; C: 500 nM<IC50≤1000 nM; D: IC50>1000 nM.

| SMILES | pIC50 |
| --- | --- |
| CS(=O)(=O)Cc1nnc(-c2nc3c(F)c(C(F)(F)F)ccc3[nH]2)n1-c1cccc(F)c1Cl (racemic) [Compound 195, 2-(4-(2-chloro-3-fluorophenyl)-5-((methylsulfonyl)methyl)-4H-1,2,4-triazol-3-yl)-4-fluoro-5-(trifluoromethyl)-1H-benzo[d]imidazole] | ≥ 7.00 |
| FC(F)(F)O[C@@H]1CCOC[C@H]1n1cnnc1-c1nc2cc(C(F)(F)F)ccc2[nH]1 (racemic) [Compound 239, 2-(4-((3R,4R)-4-(trifluoromethoxy)tetrahydro-2H-pyran-3-yl)-4H-1,2,4-triazol-3-yl)-5-(trifluoromethyl)-1H-benzo[d]imidazole] | ≥ 7.00 |
| CC(c1cc(F)c2[nH]c(-c3nncn3-c3cnccc3C(F)(F)F)nc2c1)c1nccs1 (racemic) [Compound 412, 2-(1-(7-fluoro-2-(4-(4-(trifluoromethyl)pyridin-3-yl)-4H-1,2,4-triazol-3-yl)-1H-benzo[d]imidazol-5-yl)ethyl)thiazole] | ≥ 7.00 |
| C[S+]([O-])Cc1nnc(-c2nc3cc(C(F)(F)F)ccc3[nH]2)n1-c1cccc(Cl)c1Cl (single isomer, unassigned) [Compound 146, 2-(4-(2,3-dichlorophenyl)-5-((methylsulfinyl)methyl)-4H-1,2,4-triazol-3-yl)-5-(trifluoromethyl)-1H-benzo[d]imidazole] | ≥ 7.00 |
| C[S+]([O-])Cc1nnc(-c2nc3cc(C(F)(F)F)ccc3[nH]2)n1-c1cccc(Cl)c1Cl (single isomer, unassigned) [Compound 147, 2-(4-(2,3-dichlorophenyl)-5-((methylsulfinyl)methyl)-4H-1,2,4-triazol-3-yl)-5-(trifluoromethyl)-1H-benzo[d]imidazole] | ≥ 7.00 |
| CS(=O)(=O)Cc1nnc(-c2nc3cc(C(F)(F)F)cc(F)c3[nH]2)n1-c1cccc(F)c1Cl (single isomer, unassigned) [Compound 183, 2-(4-(2-Chloro-3-fluorophenyl)-5-((methylsulfonyl)methyl)-4H-1,2,4-triazol-3-yl)-7-fluoro-5-(trifluoromethyl)-1H-benzo[d]imidazole] | 6.30 to 7.00 |
| CS(=O)(=O)Cc1nnc(-c2nc3cc(C(F)(F)F)cc(F)c3[nH]2)n1-c1cccc(F)c1Cl (single isomer, unassigned) [Compound 184, 2-(4-(2-Chloro-3-fluorophenyl)-5-((methylsulfonyl)methyl)-4H-1,2,4-triazol-3-yl)-7-fluoro-5-(trifluoromethyl)-1H-benzo[d]imidazole] | ≥ 7.00 |
| CS(=O)(=O)Cc1nnc(-c2nc3cc(C(F)(F)F)cc(F)c3[nH]2)n1-c1cccc(Cl)c1Cl (single isomer, unassigned) [Compound 186] | 6.30 to 7.00 |
| CS(=O)(=O)Cc1nnc(-c2nc3cc(C(F)(F)F)cc(F)c3[nH]2)n1-c1cccc(Cl)c1Cl (single isomer, unassigned) [Compound 187, 2-(4-(2,3-Dichlorophenyl)-5-((methylsulfonyl)methyl)-4H-1,2,4-triazol-3-yl)-7-fluoro-5-(trifluoromethyl)-1H-benzo[d]imidazole] | ≥ 7.00 |
| CS(=O)(=O)Cc1nnc(-c2nc3c(F)c(C(F)(F)F)ccc3[nH]2)n1-c1cccc(F)c1Cl (single isomer, unassigned) [Compound 196, 2-(4-(2-chloro-3-fluorophenyl)-5-((methylsulfonyl)methyl)-4H-1,2,4-triazol-3-yl)-4-fluoro-5-(trifluoromethyl)-1H-benzo[d]imidazole] | < 6.00 |
| CS(=O)(=O)Cc1nnc(-c2nc3c(F)c(C(F)(F)F)ccc3[nH]2)n1-c1cccc(F)c1Cl (single isomer, unassigned) [Compound 197, 2-(4-(2-chloro-3-fluorophenyl)-5-((methylsulfonyl)methyl)-4H-1,2,4-triazol-3-yl)-4-fluoro-5-(trifluoromethyl)-1H-benzo[d]imidazole] | ≥ 7.00 |
| O=S1(=O)CC[C@@H](OC(F)(F)F)[C@H](n2cnnc2-c2nc3cc(C(F)(F)F)ccc3[nH]2)C1 (single isomer, unassigned) [Compound 288] | < 6.00 |
| Fc1cc([C@@H]2[C@@H]3COC[C@@H]32)cc2nc(-c3nncn3-c3cnccc3C(F)(F)F)[nH]c12 (single isomer, unassigned) [Compound 349, 7-fluoro-5-(3-oxabicyclo[3.1.0]hexan-6-yl)-2-[4-[4-(trifluoromethyl)-3-pyridyl]-1,2,4-triazol-3-yl]-1H-benzimidazole] | ≥ 7.00 |
| FC(F)(F)c1ccc2[nH]c([C@H]3COC[C@@H]3c3ccccc3)nc2c1 (single isomer, unassigned) [Compound 350] | < 6.00 |
| FC(F)(F)c1ccc2[nH]c([C@H]3COC[C@H]3c3ccccc3)nc2c1 (single isomer, unassigned) [Compound 351] | < 6.00 |
| CC(c1cc(F)c2[nH]c(-c3nncn3-c3cnccc3C(F)(F)F)nc2c1)c1nccs1 (single isomer, unassigned) [Compound 433, 2-(1-(7-fluoro-2-(4-(4-(trifluoromethyl)pyridin-3-yl)-4H-1,2,4-triazol-3-yl)-1H-benzo[d]imidazol-5-yl)ethyl)thiazole] | ≥ 7.00 |

| SMILES | pIC50 |
| --- | --- |
| CC(c1cc(F)c2[nH]c(-c3nncn3-c3cnccc3C(F)(F)F)nc2c1)c1nccs1 (single isomer, unassigned) [Compound 434, 2-(1-(7-fluoro-2-(4-(4-(trifluoromethyl)pyridin-3-yl)-4H-1,2,4-triazol-3-yl)-1H-benzo[d]imidazol-5-yl)ethyl)thiazole] | ≥ 7.00 |
| Cc1ccc2[nH]c(-c3nccn3C3CCCC3)nc2c1 [Compound 2, 2-(1-cyclopentylimidazol-2-yl)-5-methyl-1H-benzimidazole] | 6.00 to 6.30 |
| Cc1ccc2[nH]c(-c3cncn3C3CCCC3)nc2c1 [Compound 3, 2-(1-cyclopentyl-1H-imidazol-5-yl)-6-methyl-1H-benzo[d]Imi-dazole] | < 6.00 |
| Cc1ccc2[nH]c(-c3ccnn3C3CCCC3)nc2c1 [Compound 4, 2-(2-cyclopentylpyrazol-3-yl)-5-methyl-1H-benzimidazole] | 6.00 to 6.30 |
| Cc1ccc2[nH]c(-c3cccn3C3CCCC3)nc2c1 [Compound 6, 2-(1-cyclopentylpyrrol-2-yl)-5-methyl-1H-benzimidazole] | 6.30 to 7.00 |
| Cc1ccc2[nH]c(-c3ncccc3C3CCCC3)nc2c1 [Compound 7, 2-(3-cyclopentylpyridin-2-yl)-5-methyl-1H-benzo[d]imidazole] | < 6.00 |
| Cc1ccc2[nH]c(C3=C(C4CCCC4)C(=O)OC3)nc2c1 [Compound 8, 3-Cyclopentyl-4-(5-methyl-1H-benzo[d]imidazol-2-yl)furan-2(5H)-one] | < 6.00 |
| Cc1ccc2[nH]c(C3=C(C4CCCC4)COC3=O)nc2c1 [Compound 9, 4-Cyclopentyl-3-(5-methyl-1H-benzo[d]imidazol-2-yl)furan-2(5H)-one] | < 6.00 |
| Cc1ccc2[nH]c(-c3ncnn3C3CCCC3)nc2c1 [Compound 10, 2-(2-cyclopentyl-1,2,4-triazol-3-yl)-5-methyl-1H-benzimidazole] | < 6.00 |
| Cc1ccc2[nH]c(-c3nncn3C3CCCC3)c(CO)c2c1 [Compound 11, [2-(4-cyclopentyl-1,2,4-triazol-3-yl)-5-methyl-1H-indol-3-yl]methanol] | < 6.00 |
| Cc1ccc2[nH]c(-n3c(C4CCCC4)n[nH]c3=O)nc2c1 [Compound 12, 5-cyclopentyl-4-(5-methyl-1H-benzo[d]imidazol-2-yl)-2,4-dihydro-3H-1,2,4-triazol-3-one] | < 6.00 |
| Cc1ccc2[nH]c(C3CCCN3c3cccc(Cl)c3Cl)nc2c1 (centres unmarked) [Compound 13, 2-(1-(2,3-Dichlorophenyl)pyrrolidin-2-yl)-5-methyl-1H-benzo[d]imidazole] | < 6.00 |
| Cc1ccc2[nH]c(-c3n[nH]c(=O)n3C3CCCC3)nc2c1 [Compound 14] | < 6.00 |
| Cc1ccc2[nH]c(-c3cc(CO)cn3C3CCCC3)nc2c1 [Compound 16, (1-Cyclopentyl-5-(5-methyl-1H-benzo[d]imidazol-2-yl)-1H-pyrrol-3-yl)methanol] | 6.00 to 6.30 |
| Cc1ccc2[nH]c(-c3c(CO)ccn3C3CCCC3)nc2c1 [Compound 17, (1-cyclopentyl-2-(5-methyl-1H-benzo[d]imidazol-2-yl)-1H-pyrrol-3-yl)methanol] | < 6.00 |
| Cc1ccc2[nH]c(-c3cc(C#N)cn3C3CCCC3)nc2c1 [Compound 18, 1-cyclopentyl-5-(5-methyl-1H-benzo[d]imidazol-2-yl)-1H-pyrrole-3-carbonitrile] | 6.30 to 7.00 |
